According to US7208517B1, “Endothelin antagonists” (Abbott Labortories, priority 1994, dated 2007):
Like-named read-outs stand apart in the source and are kept apart here.

Legend:
[1] = target: T1, ETA Receptor (Rattus norvegicus, UniProt P26684); test: [125I]ET-1 binding to membranes from MMQ cells (ETA receptor binding assay, Table 4); settings: for inhibition at 1 µM: read-out: % Inhibition of ETA at 1 μM
T1 construct: endogenous in cells; host or cells: MMQ rat pituitary cells (membranes)
T1 sequence (P26684 21-426): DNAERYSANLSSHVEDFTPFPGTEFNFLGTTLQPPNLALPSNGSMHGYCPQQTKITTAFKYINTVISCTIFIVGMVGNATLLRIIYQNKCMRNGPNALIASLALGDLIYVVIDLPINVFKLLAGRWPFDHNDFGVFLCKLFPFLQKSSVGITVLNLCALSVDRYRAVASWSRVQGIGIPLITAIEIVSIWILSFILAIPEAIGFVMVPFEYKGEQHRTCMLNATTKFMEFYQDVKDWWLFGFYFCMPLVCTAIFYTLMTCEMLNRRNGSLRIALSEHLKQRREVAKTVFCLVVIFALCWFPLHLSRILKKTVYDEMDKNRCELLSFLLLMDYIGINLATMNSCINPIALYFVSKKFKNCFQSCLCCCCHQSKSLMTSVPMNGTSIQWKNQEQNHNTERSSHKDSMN

[2] = target: T2, ETA receptor in MMQ cells (rET-A) (Rattus norvegicus, UniProt P26684); test: ETA/ETB selectivity: (125I)ET-1 competition binding, ETA assay in MMQ cell membranes (rET-A)
T2 construct: endogenous in cells; host or cells: MMQ rat pituitary cells (membranes)
T2 sequence (P26684 21-426): T1 sequence (P26684 21-426)
Experimental: (§1) The mixture was centrifuged at 1000×g for 10 min. The supernatant was collected and centrifuged at 60,000×g for 60 min. The precipitate was resuspended in 20 mM Tris, pH 7.4 containing protease inhibitor and centrifuged again. The final membrane pellet was resuspended in 20 mM Tris, pH 7.4 containing protease inhibitors and stored at −80° C. until used. Protein content was determined by the Bio-Rad dye-binding protein assay.
(§2) Binding assays were performed in 96-well microtiter plates pretreated with 0.1% BSA. […] After incubation, unbound ligands were separated from bound ligands by a vacuum filtration method using glass-fiber filter strips in PHD cell harvesters (Cambridge Technology, Inc., MA), washing the filter strips three times with saline (1 mL). Nonspecific binding was determined in the presence of 1 μM ET-1. IC50 values are calculated using an average of at least two separate determinations.

[3] = target: T3, ETB receptors of porcine cerebellar tissues (pET-B) (Sus scrofa, UniProt P35463); test: ETA/ETB selectivity: (125I)ET-3 competition binding, ETB assay in porcine cerebellum membranes (pET-B)
T3 construct: porcine cerebellar tissues (known to contain ETB receptors); from tissue; host or cells: porcine cerebellum (membranes)
T3 sequence (P35463 27-443): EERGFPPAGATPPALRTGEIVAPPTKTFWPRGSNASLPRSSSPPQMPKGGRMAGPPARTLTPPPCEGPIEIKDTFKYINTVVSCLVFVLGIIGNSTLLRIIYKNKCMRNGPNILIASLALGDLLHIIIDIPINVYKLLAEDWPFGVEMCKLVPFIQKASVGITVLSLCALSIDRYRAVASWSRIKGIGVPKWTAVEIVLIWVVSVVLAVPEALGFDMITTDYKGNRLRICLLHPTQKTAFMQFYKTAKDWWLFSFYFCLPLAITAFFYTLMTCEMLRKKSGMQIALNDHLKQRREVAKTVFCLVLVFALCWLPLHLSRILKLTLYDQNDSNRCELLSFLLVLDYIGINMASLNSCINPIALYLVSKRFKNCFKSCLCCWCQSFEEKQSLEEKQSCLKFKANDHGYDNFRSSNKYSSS
Experimental: as §1, §2

[4] = target: T4, human ETB receptor (Homo sapiens, UniProt P24530); test: ETA/ETB selectivity: (125I)ET-3 competition binding, CHO cells transfected with human ETB receptor (hET-B); settings: CHO cells transfected with human ETB receptor; 0.1 nM (125I)ET-3; read-out: hET-B IC50
T4 construct: expressed in transfected cells; host or cells: CHO cells, permanently transfected
T4 sequence (P24530 27-442): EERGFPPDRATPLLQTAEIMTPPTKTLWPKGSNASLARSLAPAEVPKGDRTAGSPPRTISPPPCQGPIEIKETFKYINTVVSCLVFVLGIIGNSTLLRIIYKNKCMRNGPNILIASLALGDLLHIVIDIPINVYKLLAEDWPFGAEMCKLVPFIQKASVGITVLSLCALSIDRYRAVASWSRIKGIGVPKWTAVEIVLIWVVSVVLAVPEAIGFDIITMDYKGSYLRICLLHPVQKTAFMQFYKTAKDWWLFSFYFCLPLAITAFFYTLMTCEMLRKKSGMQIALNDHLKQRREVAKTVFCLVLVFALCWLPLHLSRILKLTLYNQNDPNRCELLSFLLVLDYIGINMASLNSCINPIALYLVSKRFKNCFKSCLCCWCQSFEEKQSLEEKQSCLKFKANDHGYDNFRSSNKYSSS
Experimental: MMQ cells, porcine cerebellar tissues (known to contain ETB receptors) and chinese hamster ovary cells (CHO) permanently transfected with the human ETA or ETB receptor were homogenized in 25 ml of 10 mM Hepes (pH 7.4) containing 0.25 M sucrose and a protease inhibitor [50 mM EDTA, 0.1 mM PMSF, 5 μg/ml Pepstatin A, and 0.025% Bacitracin] using a micro ultrasonic cell disrupter. The mixture was centrifuged at 1000×g for 10 min. The supernatant was collected and centrifuged at 60,000×g for 60 min. The precipitate was resuspended in 20 mM Tris, pH 7.4 containing protease inhibitor and centrifuged again. The final membrane pellet was resuspended in 20 mM Tris, pH 7.4 containing protease inhibitors and stored at −80° C. until used. Protein content was determined by the Bio-Rad dye-binding protein assay.
Binding assays were performed in 96-well microtiter plates pretreated with 0.1% BSA. Membranes prepared from cells were diluted 100 fold in Buffer B (20 mM Tris, 100 mM NaCl, 10 mM MgCl2, pH 7.4, with 0.2% BSA, 0.1 mM PMSF, 5 μg/mL Pepstatin A, 0.025% bacitracin, and 50 mM EDTA) to a final concentration of 0.2 mg/mL of protein. In competition binding studies, membranes (0.02 mg) were incubated with 0.1 nM of (^125I)ET-1 (for ETA assay in MMQ or CHO cells transfected with human ETA receptor) or (^125I)ET-3 (for ETB assay in porcine cerebellum or CHO cells transfected with human ETB receptor) in Buffer B (final volume: 0.2 mL) in the presence of increasing concentrations of the test compound for 3 hours at 25° C. After incubation, unbound ligands were separated from bound ligands by a vacuum filtration method using glass-fiber filter strips in PHD cell harvesters (Cambridge Technology, Inc., MA), washing the filter strips three times with saline (1 mL). Nonspecific binding was determined in the presence of 1 μM ET-1. IC50 values are calculated using an average of at least two separate determinations.

[5] = target: T5, human ETA receptor (Homo sapiens, UniProt P25101); test: ETA/ETB selectivity: (125I)ET-1 competition binding, CHO cells transfected with human ETA receptor (hET-A)
T5 construct: expressed in transfected cells; host or cells: CHO cells, permanently transfected
T5 sequence (P25101 21-427): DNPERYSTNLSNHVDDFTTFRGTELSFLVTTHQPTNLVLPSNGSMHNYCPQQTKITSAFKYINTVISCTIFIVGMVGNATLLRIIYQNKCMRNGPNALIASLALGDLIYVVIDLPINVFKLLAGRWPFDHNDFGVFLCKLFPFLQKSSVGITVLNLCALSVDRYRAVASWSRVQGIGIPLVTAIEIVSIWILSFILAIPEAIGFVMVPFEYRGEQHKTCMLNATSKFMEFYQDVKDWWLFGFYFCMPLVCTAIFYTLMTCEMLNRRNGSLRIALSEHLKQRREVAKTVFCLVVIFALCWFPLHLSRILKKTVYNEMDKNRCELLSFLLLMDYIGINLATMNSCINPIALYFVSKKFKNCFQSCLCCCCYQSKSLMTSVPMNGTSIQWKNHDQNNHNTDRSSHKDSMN
Experimental: as §1, §2

[6] = test compound at 1 μM, 0.1 nM [125I]ET-1, MMQ cell membranes, 4 hours at 25° C.
[7] = CHO cells transfected with human ETA receptor, 0.1 nM (125I)ET-1, read-out: hET-A IC50
[8] = MMQ cell membranes, 0.1 nM (125I)ET-1, read-out: rET-A IC50
[9] = porcine cerebellum membranes, 0.1 nM (125I)ET-3, read-out: pET-B IC50

Compound	inhibition at 1 µM [1, 6] [%]	IC50 [2, 8] [nM]	IC50 [3, 9] [nM]	further results
COc1ccc(C2C(C(=O)O)C(c3ccc4c(c3)OCO4)CN2CC(=O)Nc2ccccc2)cc1 (centres unmarked) [Example 495]	95.9			
CCc1ccccc1C(NC(=O)CN1CC(c2ccc3c(c2)OCO3)C(C(=O)O)C1c1ccc(OCCOC(C)C)cc1)c1ccccc1C (stereo not drawn) [Example 559, trans,trans-2-[4-(2-Isopropopoxyethoxy)phenyl]-4-(1,3-benzodioxol-5-yl)-1-(N-((1-(o-tolyl)-1-(o-ethylphenyl)-methyl)amino)carbonylmethyl)-pyrrolidine-3-carboxylic acid]				% Inhibition of ETA at 1 μM [1, 6]: 5.8%
CC(C)OCCOc1ccc(C2C(C(=O)O)C(c3ccc4c(c3)OCO4)CN2CC(=O)NN(c2ccccc2)C(C)(C)C)cc1 (stereo not drawn) [Example 560, trans,trans-2-(4-(2-(2-Propoxy)ethoxy)phenyl)-4-(1,3-benzodioxol-5-yl)-1-N-phenyl-N-t-butylhydrazino carbonylmethyl)-pyrrolidine-3-carboxylic acid]				% Inhibition of ETA at 1 μM [1, 6]: 0%
COCCOc1ccc(C2C(C(=O)O)C(c3ccc4c(c3)OCO4)CN2CC(=O)NN(c2ccccc2)C(C)(C)C)cc1 (stereo not drawn) [Example 561, trans,trans-2-(4-(2-Methoxyethoxy)phenyl)-4-(1,3-benzodioxol-5-yl)-1-(N-phenyl-N-t-butylhydrazinocarbonylmethyl)-pyrrolidine-3-carboxylic acid]				% Inhibition of ETA at 1 μM [1, 6]: 0%
CCCCN(CCCC)C(=O)CN1CC(c2ccc3c(c2)OCO3)C(C(=O)O)C1CC(C)CCC (centres unmarked) [compound 502]				inhibition at 1 µM [1]: 95.7%; IC50 [2]: 3 nM; IC50 [3]: 71000 nM
CCCC(CCC)N(C(=O)CN1C[C@H](c2ccc3c(c2)OCO3)[C@@H](C(=O)O)[C@@H]1CC(C)(C)CCC)c1ccc(F)c(C)c1 [compound 511]	99.2	0.81		IC50 [4]: 15000 nM; IC50 [5, 7]: 0.6 nM
CCCCN(CCCC)C(=O)CN1CC(c2ccc3c(c2)OCO3)C(C(=O)O)C1CCN1CCCC1=O (centres unmarked) [compound 512]	98.9		> 80000	IC50 [4]: ≥ 60000 nM; IC50 [5, 7]: 0.58 nM; IC50 [2]: 0.42 nM
CCCCN(CCCC)C(=O)CN1CC(c2cc(OC)c3c(c2)OCO3)C(C(=O)O)C1CC(C)(C)CCC (centres unmarked) [compound 514]	100	1		IC50 [3]: 26000 nM
CCCCN(CCCC)C(=O)CN1CC(c2ccc3c(c2)OCO3)C(C(=O)O)C1CCc1ccccn1 (centres unmarked) [compound 519]				inhibition at 1 µM [1]: 99.1%; IC50 [4]: 19000 nM; IC50 [5, 7]: 0.23 nM; IC50 [2]: 0.38 nM; IC50 [3]: 14000 nM
CCCCN(CCCC)C(=O)CN1C[C@H](c2ccc3c(c2)OCO3)[C@@H](C(=O)O)[C@@H]1CCN1CCCC1=O [compound 520]	97.4	0.2	28000	
CCCC(CCC)N(C(=O)CN1C[C@H](c2ccc3c(c2)OCO3)[C@@H](C(=O)O)[C@@H]1CCN1CCCC1=O)c1ccc(F)c(C)c1 [compound 521]	100	0.67	37000	
CCCCN(CCCN)C(=O)CN1CC(c2ccc3c(c2)OCO3)C(C(=O)O)C1c1ccc(OC)cc1 (centres unmarked) [compound 526]	100	42		IC50 [4]: 7400 nM; IC50 [5, 7]: 17 nM
CCCCN(CCCN(C)C)C(=O)CN1CC(c2ccc3c(c2)OCO3)C(C(=O)O)C1c1ccc(OC)cc1 (centres unmarked) [compound 527]	96.6	7.9	10000	
CCCCN(CCC[N+](C)(C)C)C(=O)CN1CC(c2ccc3c(c2)OCO3)C(C(=O)O)C1c1ccc(OC)cc1 (centres unmarked) [compound 528]	98.3	11	43000	
CCCCN(CCCCN)C(=O)CN1CC(c2ccc3c(c2)OCO3)C(C(=O)O)C1c1ccc(OC)cc1 (centres unmarked) [compound 529]	98.1	3.6	6300	
CCCCN(CCCC)C(=O)CN1C[C@H](c2cc(OC)c3c(c2)OCO3)[C@@H](C(=O)O)[C@@H]1CC(C)(C)CCC [compound 536]	100	0.52		IC50 [3]: 17000 nM
CC=CC(C)(C)CC1C(C(=O)O)C(c2ccc3c(c2)OCO3)CN1CC(=O)N(CCCC)CCCC (centres unmarked) [compound 552]				IC50 [4]: > 96000 nM; IC50 [5]: 1 nM; inhibition at 1 µM ([2]; 1 μM test compound, MMQ cell membranes): 97.3%
(2R,3R,4S)-(+)-2-(4-Methoxyphenyl)-4-(1,3-benzodioxol-5-yl)-1-(tert-butyloxycarbonyl-aminocarbonylmethyl)-pyrrolidine-3-carboxylic acid [Example 95D]				% Inhibition of ETA at 1 μM [1, 6]: 82.1%
